Results taken from patent US20240336574A1 (LATIGO BIOTHERAPEUTICS, INC., priority 2021, published 2024).
pIC50: −log10 of the molar value. Where two headings read alike, the source gives them in different places.

Biological target: T1, recombinant human NaV1.8 stably transfected HEK cells (Homo sapiens, UniProt Q9Y5Y9)
T1 construct: expressed in transfected cells; host or cells: HEK cells, stably transfected
Experiment: Compound profiling on NaV1.8, human NaV1.8 cell line, SyncroPatch384PE automated patch clamp assay (Example 115, third set of compounds, Table 27)
Format: cell-based
Settings: human NaV1.8 HEK cells, Table 27 (third set of compounds)
Method: Compound Profiling on NaV1.8 Human NaV1.8 Cell Line SyncroPatch384PE Assay
Compounds were tested on recombinant human NaV1.8 stably transfected HEK cells using the SyncroPatch384PE system, an automated patch clamp device. Cells were cultured at 37° C./5% CO2 in DMEM medium supplemented with GlutaMAX I, NEAA 1%, FBS 10% and seeded in T175 flasks. Cells were cultured at 30° C. one day prior to recording sodium currents. On the day of the recordings, cells were detached with 0.05% Trypsin-EDTA, resuspended in serum free DMEM medium and placed into the SyncroPatch384PE 6° C. pre-cooled cell hotel and shaken at 200 rpm. Intracellular solution (IC) contained, in mM: 10, CsCl; 110, CsF; 20, EGTA; 10, HEPES. Extracellular solution (EC) contained, in mM: 140, NaCl; 4, KCl; 5, Glucose; 10, HEPES; 2, CaCl2; 1, MgCl2. Washing solution contained, in mM: 40, NMDG; 100, NaCl; 4, KCl; 10, Glucose; 10, HEPES; 5, CaCl2; 1, MgCl2.
Compounds were tested in quadruplicates in 0.1% DMSO and 0.030% Pluronic Acid. Compounds were diluted 1:3.33 in EC solution to create a 10-point concentration response curve, spanning a final concentration range from 10-0.0002 μM in the assay plate. Compounds with low nM potency were retested using a lower concentration range (1-0.00002 μM). Each plate contained tetracaine and another tool compound as positive controls. Up to 7 compounds were tested on one plate. 150 μM tetracaine and 0.1% DMSO were used as high and low controls, respectively.
Whole cell patch clamp recordings were conducted according to Nanion's standard procedure for SyncroPatch384PE®. Cells were held at a holding potential of −120 mV. A depolarization step to 10 mV for 30 ms was applied (P1 measurement), followed by a hyperpolarization step to −100 mV for 100 ms. An inactivation step at −40 mV for 10 sec was applied before stepping to −100 mV for 20 ms, followed by a step to 10 mV for 30 ms (P2 measurement) and then back to −100 mV for 30 ms. Sweep interval was 15 sec with a sampling rate of 10 kHz. Following establishment of the whole-cell configuration in EC, two washing steps with reference buffer were performed to stabilize the baseline. Compounds were then applied by the SynchroPatch into each well and the current was recorded for five minutes in EC, followed by application of tetracaine to achieve full block at the end of the experiment. The potency of the compounds was assessed on two read-outs, resting state block (P1 measurement) or inactivated state block (P2 measurement) to obtain IC50 values. Values were normalized to high (tetracaine) and low (DMSO) controls.

[1] = inactivated state block (P2 measurement), read-out: P2 IC50
[2] = resting state block (P1 measurement), read-out: P1 IC50

T1 sequence (Q9Y5Y9 whole entry): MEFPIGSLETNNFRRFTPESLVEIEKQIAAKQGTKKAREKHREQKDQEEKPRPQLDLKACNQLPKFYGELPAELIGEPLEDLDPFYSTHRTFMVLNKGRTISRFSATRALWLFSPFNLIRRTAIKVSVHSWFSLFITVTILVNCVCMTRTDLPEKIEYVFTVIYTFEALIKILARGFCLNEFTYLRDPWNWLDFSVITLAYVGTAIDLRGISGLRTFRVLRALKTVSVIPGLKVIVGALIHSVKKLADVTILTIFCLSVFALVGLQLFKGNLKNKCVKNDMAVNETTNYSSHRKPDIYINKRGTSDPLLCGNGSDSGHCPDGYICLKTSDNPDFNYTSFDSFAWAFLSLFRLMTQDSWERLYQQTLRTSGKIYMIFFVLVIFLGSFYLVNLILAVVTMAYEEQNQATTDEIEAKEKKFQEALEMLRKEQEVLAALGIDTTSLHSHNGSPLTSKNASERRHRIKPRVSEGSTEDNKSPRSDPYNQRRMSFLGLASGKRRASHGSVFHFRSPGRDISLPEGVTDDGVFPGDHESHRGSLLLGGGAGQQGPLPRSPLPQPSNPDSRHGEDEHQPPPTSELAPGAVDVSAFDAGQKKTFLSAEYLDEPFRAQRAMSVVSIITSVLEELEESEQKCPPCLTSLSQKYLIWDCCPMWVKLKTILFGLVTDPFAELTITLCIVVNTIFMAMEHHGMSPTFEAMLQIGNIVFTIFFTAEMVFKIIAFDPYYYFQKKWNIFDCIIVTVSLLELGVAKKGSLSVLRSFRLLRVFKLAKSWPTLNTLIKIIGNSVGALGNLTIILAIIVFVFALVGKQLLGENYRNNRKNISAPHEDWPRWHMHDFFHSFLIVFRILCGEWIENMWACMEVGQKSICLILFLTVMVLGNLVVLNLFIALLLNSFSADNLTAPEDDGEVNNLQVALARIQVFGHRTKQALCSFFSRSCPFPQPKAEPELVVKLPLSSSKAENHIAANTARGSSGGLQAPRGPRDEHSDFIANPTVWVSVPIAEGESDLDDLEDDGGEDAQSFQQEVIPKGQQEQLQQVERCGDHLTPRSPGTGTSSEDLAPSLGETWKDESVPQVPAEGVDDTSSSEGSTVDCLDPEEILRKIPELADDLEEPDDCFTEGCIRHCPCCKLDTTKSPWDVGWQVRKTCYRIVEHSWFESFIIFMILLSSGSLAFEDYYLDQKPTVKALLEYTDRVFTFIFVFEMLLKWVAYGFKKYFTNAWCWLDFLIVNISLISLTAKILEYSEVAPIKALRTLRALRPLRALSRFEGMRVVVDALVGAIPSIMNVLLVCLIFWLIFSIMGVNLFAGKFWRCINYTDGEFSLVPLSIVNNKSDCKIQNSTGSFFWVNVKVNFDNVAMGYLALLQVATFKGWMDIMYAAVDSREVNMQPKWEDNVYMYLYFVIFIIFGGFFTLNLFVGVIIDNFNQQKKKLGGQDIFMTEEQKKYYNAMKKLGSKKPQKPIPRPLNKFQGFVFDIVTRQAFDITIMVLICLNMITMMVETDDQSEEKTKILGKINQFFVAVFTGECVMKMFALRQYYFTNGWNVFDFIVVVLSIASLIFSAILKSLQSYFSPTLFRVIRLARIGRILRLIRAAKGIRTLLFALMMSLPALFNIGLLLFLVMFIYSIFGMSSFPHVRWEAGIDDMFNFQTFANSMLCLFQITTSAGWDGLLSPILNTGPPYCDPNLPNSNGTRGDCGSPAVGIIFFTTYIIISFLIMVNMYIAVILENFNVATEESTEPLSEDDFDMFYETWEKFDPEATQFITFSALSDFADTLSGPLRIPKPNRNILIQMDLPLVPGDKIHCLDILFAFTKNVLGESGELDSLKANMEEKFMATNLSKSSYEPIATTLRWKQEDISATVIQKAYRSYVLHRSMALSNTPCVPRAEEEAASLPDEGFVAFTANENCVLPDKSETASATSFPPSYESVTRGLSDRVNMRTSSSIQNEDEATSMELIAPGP

Compound | pIC50 [1] | pIC50 [2]
Cc1cc(F)ccc1Oc1nnc(C(F)(F)F)cc1C(=O)Nc1cccc(-c2cc[nH]n2)c1 [Compound 85] | < 5.30 | < 5.30
COc1cc(NC(=O)c2cc(C(F)(F)F)nnc2Oc2ccc(F)cc2C)ccn1 [Compound 86] | 6.00 to 6.30 | 6.00 to 6.30
Cc1cc(C2CC2)ccc1Oc1nnc(C(F)(F)F)cc1C(=O)Nc1cccc(S(C)(=O)=O)c1 [Compound 87] | ≥ 6.70 | ≥ 6.70
O=C(Nc1cc[nH]c(=O)c1)c1cc(C(F)(F)F)nnc1Oc1ccc(F)cc1Cl [Compound 89, 3-(2-Chloro-4-fluorophenoxy)-N-(2-oxo-1,2-dihydropyridin-4-yl)-6-(trifluoromethyl)pyridazine-4-carboxamide] | 5.30 to 6.00 | 5.30 to 6.00
Cc1c[nH]c(=O)cc1NC(=O)c1cc(C(F)(F)F)nnc1Oc1ccc(F)cc1C [Compound 90, 3-(4-Fluoro-2-methylphenoxy)-N-(5-methyl-2-oxo-1,2-dihydropyridin-4-yl)-6-(trifluoromethyl)pyridazine-4-carboxamide] | < 5.30 | < 5.30
Cc1cc(F)ccc1Oc1nnc(C(F)(F)F)cc1C(=O)Nc1cc[nH]c(=O)c1C [Compound 91, 3-(4-Fluoro-2-methylphenoxy)-N-(3-methyl-2-oxo-1,2-dihydropyridin-4-yl)-6-(trifluoromethyl)pyridazine-4-carboxamide] | < 5.30 | < 5.30
Cc1cc(F)ccc1Oc1nnc(C(F)(F)F)cc1C(=O)Nc1ccc(=O)[nH]c1C [Compound 92, 3-(4-Fluoro-2-methylphenoxy)-N-(2-methyl-6-oxo-1,6-dihydropyridin-3-yl)-6-(trifluoromethyl)pyridazine-4-carboxamide] | < 5.30 | < 5.30
Cc1cc(C(=O)Nc2cccc(S(C)(=N)=O)c2)c(Oc2ccc(F)cc2C)nn1 (stereo not drawn) [Compound 93, 3-(4-Fluoro-2-methyl-phenoxy)-6-methyl-N-[3-(methylsulfonimidoyl)phenyl]pyridazine-4-carboxamide] | < 5.30 | 5.30 to 6.00
COc1cc(F)ccc1Oc1nnc(C)cc1C(=O)Nc1cccc(S(C)(=N)=O)c1 (stereo not drawn) [Compound 94, 3-(4-Fluoro-2-methoxyphenoxy)-6-methyl-N-(3-(S-methylsulfonimidoyl)phenyl)pyridazine-4-carboxamide] | < 5.30 | 5.30 to 6.00
CCOc1cc(F)ccc1Oc1nnc(C)cc1C(=O)Nc1cccc(S(C)(=N)=O)c1 (stereo not drawn) [Compound 95, 3-(2-Ethoxy-4-fluorophenoxy)-6-methyl-N-(3-(S-methylsulfonimidoyl)phenyl)pyridazine-4-carboxamide] | < 5.30 | < 5.30
CS(=N)(=O)c1cccc(NC(=O)c2cc(C(F)(F)F)nnc2Oc2ccc(F)cc2Cl)c1 (stereo not drawn) [Compound 96, 3-(2-Chloro-4-fluorophenoxy)-N-(3-(S-methylsulfonimidoyl)phenyl)-6-(trifluoromethyl)pyridazine-4-carboxamide] | 6.00 to 6.30 | 6.30 to 6.70
CS(=N)(=O)c1cc(NC(=O)c2cc(C(F)(F)F)nnc2Oc2ccc(F)cc2Cl)ccn1 (stereo not drawn) [Compound 97] | 5.30 to 6.00 | 5.30 to 6.00
Cc1cc(F)ccc1Oc1nnc(C(F)(F)F)cc1C(=O)Nc1ccc(S(C)(=N)=O)cc1 (stereo not drawn) [Compound 98, 3-(4-Fluoro-2-methylphenoxy)-N-(4-(S-methylsulfonimidoyl)phenyl)-6-(trifluoromethyl)pyridazine-4-carboxamide] | < 5.30 | < 5.30
COc1cc(F)ccc1Oc1nnc(C(F)(F)F)cc1C(=O)Nc1cccc(S(C)(=N)=O)c1 (stereo not drawn) [Compound 99, 3-(4-Fluoro-2-methoxyphenoxy)-N-(3-(S-methylsulfonimidoyl)phenyl)-6-(trifluoromethyl)pyridazine-4-carboxamide] | ≥ 6.70 | ≥ 6.70
Cc1cc(F)ccc1Oc1nnc(C(F)(F)F)cc1C(=O)Nc1cccc([S@](C)(=N)=O)c1 [Compound 102, (R)-3-(4-fluoro-2-methylphenoxy)-N-(3-(S-methylsulfonimidoyl)phenyl)-6-(trifluoromethyl)pyridazine-4-carboxamide] | 6.30 to 6.70 | 6.00 to 6.30
Cc1cc(F)ccc1Oc1nnc(C(F)(F)F)cc1C(=O)Nc1cccc([S@@](C)(=N)=O)c1 [Compound 103, (S)-3-(4-fluoro-2-methylphenoxy)-N-(3-(S-methylsulfonimidoyl)phenyl)-6-(trifluoromethyl)pyridazine-4-carboxamide] | 6.30 to 6.70 | < 5.30
COc1cc(F)ccc1Oc1nnc(C)cc1C(=O)Nc1cccc(S(C)(=O)=O)c1 [Compound 104] | < 5.30 | < 5.30
COc1cc(F)ccc1Oc1nnc(C)cc1C(=O)Nc1cccc([S+](C)[O-])c1 (stereo not drawn) [Compound 105] | < 5.30 | < 5.30
Cc1cc(F)ccc1Oc1nnc(C(F)(F)F)cc1C(=O)Nc1ccc(C)c(S(C)(=O)=O)c1 [Compound 106, 3-(4-Fluoro-2-methylphenoxy)-N-(4-methyl-3-(methylsulfonyl)phenyl)-6-(trifluoromethyl)pyridazine-4-carboxamide] | 6.30 to 6.70 | 6.30 to 6.70
COc1cc(F)ccc1Oc1nnc(C(F)(F)F)cc1C(=O)Nc1ccc(C)c(S(C)(=O)=O)c1 [Compound 107, 3-(4-Fluoro-2-methoxyphenoxy)-N-(4-methyl-3-(methylsulfonyl)phenyl)-6-(trifluoromethyl)pyridazine-4-carboxamide] | ≥ 6.70 | ≥ 6.70

Further lines, results first:

pIC50 [1] | pIC50 [2] | Compound
< 5.30 | < 5.30 | CCOc1cc(F)ccc1Oc1nnc(C)cc1C(=O)Nc1cccc(S(C)(=O)=O)c1 [Compound 108]
6.30 to 6.70 | 6.30 to 6.70 | Cc1cc(F)ccc1Oc1nnc(C(F)(F)F)cc1C(=O)Nc1ccc(C)c(S(C)(=N)=O)c1 (stereo not drawn) [Compound 109, 3-(4-Fluoro-2-methylphenoxy)-N-(4-methyl-3-(S-methylsulfonimidoyl)phenyl)-6-(trifluoromethyl)pyridazine-4-carboxamide]
< 5.30 | < 5.30 | CSc1cccc(NC(=O)c2cc(C(F)(F)F)nnc2Oc2ccc(C#N)cc2C)c1 [Compound 110]
< 5.30 | < 5.30 | CSc1cccc(NC(=O)c2cc(C(F)(F)F)nnc2Oc2cc(F)ccc2Cl)c1 [Compound 111]
≥ 6.70 | ≥ 6.70 | Cc1cc(C#N)ccc1Oc1nnc(C(F)(F)F)cc1C(=O)Nc1cccc(S(C)(=N)=O)c1 (stereo not drawn) [Compound 114, 3-(4-Cyano-2-methylphenoxy)-N-(3-(S-methylsulfonimidoyl)phenyl)-6-(trifluoromethyl)pyridazine-4-carboxamide]
6.30 to 6.70 | 6.30 to 6.70 | COc1ccc(F)cc1Oc1nnc(C(F)(F)F)cc1C(=O)Nc1cccc(S(C)(=N)=O)c1 (stereo not drawn) [Compound 116]
≥ 6.70 | ≥ 6.70 | Cc1cc(Br)ccc1Oc1nnc(C(F)(F)F)cc1C(=O)Nc1cccc(S(C)(=N)=O)c1 (stereo not drawn) [Compound 117, 3-(4-Bromo-2-methylphenoxy)-N-(3-(S-methylsulfonimidoyl)phenyl)-6-(trifluoromethyl)pyridazine-4-carboxamide]
≥ 6.70 | ≥ 6.70 | NS(=O)(=O)c1cccc(NC(=O)c2cc(C(F)(F)F)nnc2Oc2cc(F)ccc2Cl)c1 [Compound 118, 3-(2-Chloro-5-fluorophenoxy)-N-(3-sulfamoylphenyl)-6-(trifluoromethyl)pyridazine-4-carboxamide]
6.00 to 6.30 | 6.00 to 6.30 | Cc1ccc(F)cc1Oc1nnc(C(F)(F)F)cc1C(=O)Nc1cccc(S(N)(=O)=O)c1 [Compound 119, 3-(5-Fluoro-2-methylphenoxy)-N-(3-sulfamoylphenyl)-6-(trifluoromethyl)pyridazine-4-carboxamide]
≥ 6.70 | ≥ 6.70 | COc1cc(C#N)ccc1Oc1nnc(C(F)(F)F)cc1C(=O)Nc1cccc(S(N)(=O)=O)c1 [Compound 121, 3-(4-Cyano-2-methoxyphenoxy)-N-(3-sulfamoylphenyl)-6-(trifluoromethyl)pyridazine-4-carboxamide]
